Test results published in PMC9734138, “Structure of the AlgKX modification and secretion complex required for alginate production and biofilm attachment in Pseudomonas aeruginosa” (Nature Communications, 2022).
Several values for one entry are separate records, joined by “and”; a condition that tells them apart may be missing. Identical values can stand only once.

Columns and labels:
[1] = biological target: T1, AlgXPp (Pseudomonas putida, UniProt Q88ND0); test: Acetylesterase activity assay, 3-carboxyumbelliferyl acetate, AlgX; type: biochemical; parameters: His6 (C); made in house; host or cells: E. coli Lemo21 (DE3); conditions: AlgX alone; linear regression of raw values minus buffer blank vs time (s); exp1 and exp2, triplicates; Supp. Fig. 14b
Experimental: (§1) The assay was performed as previously described in refs. [19], [29] with minor modifications. Briefly, standard reactions contained 5 μM protein (AlgKPp, AlgXPp, or AlgKPp-AlgXPp complex) in 50 mM sodium HEPES pH 7.0 and 75 mM NaCl. Reactions were initiated with the addition of pNP-acetate dissolved in ethanol to 2.5 mM. Alginate substrates were added at a final concentration of 0.5 mg/mL. Alginate substrates were purified as previously described[62] from FRD1[66] and FRD462[67]. The hydrolysis and removal of an acetate group from pNP-acetate was monitored in real-time for 10 min at 405 nm for the appearance of p-nitrophenyl. The background hydrolysis rate of pNP-acetate in the absence of enzymes was measured and subtracted from reaction rates. For Supplementary Fig. 11b, a similar assay was performed as previously described in ref. [19], with minor modifications. Briefly, Briefly, standard reactions contained 5 μM protein (AlgKPp, AlgXPp, or AlgKPp-AlgXPp complex) in 50 mM sodium HEPES pH 7.0 and 75 mM NaCl. […] The hydrolysis and removal of an acetate group from 3-carboxyumbelliferyl acetate was monitored in real-time for 10 min using an excitation of 386 nm and an emission of 447 nm. The background hydrolysis rate of 3-carboxyumbelliferyl acetate in the absence of enzymes was measured and subtracted from reaction rates. Data were analysed using GraphPad Prism 9 (Dotmatics).
Target sequence in this assay (Q88ND0 25-479): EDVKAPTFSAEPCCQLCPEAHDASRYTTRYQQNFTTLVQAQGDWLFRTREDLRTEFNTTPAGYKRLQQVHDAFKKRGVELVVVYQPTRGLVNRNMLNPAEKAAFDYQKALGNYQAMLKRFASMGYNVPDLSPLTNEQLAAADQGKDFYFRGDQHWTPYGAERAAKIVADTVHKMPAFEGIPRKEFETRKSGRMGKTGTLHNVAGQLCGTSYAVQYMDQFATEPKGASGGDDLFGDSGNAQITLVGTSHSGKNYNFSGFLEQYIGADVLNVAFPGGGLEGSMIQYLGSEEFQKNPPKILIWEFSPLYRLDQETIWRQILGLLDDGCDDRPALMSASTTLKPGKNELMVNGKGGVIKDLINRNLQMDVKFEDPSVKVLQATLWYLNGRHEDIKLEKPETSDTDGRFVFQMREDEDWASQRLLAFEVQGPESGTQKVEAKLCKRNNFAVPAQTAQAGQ

[2] = biological target: T1, AlgXPp; test: Acetylesterase activity assay, pNP-acetate, AlgXPp; type: biochemical; parameters: His6 (C); made in house; host or cells: E. coli Lemo21 (DE3); conditions: pNP-acetate pseudosubstrate; sample as labelled (AlgX alone, Man10 alone, AlgX+Man10); single technical replicates
Experimental: as §1
Target sequence in this assay (Q88ND0 25-479): as above

[3] = biological target: T1, AlgXPp; test: Direct ESI-MS alginate binding assay, AlgXPp; parameters: His6 (C); made in house; host or cells: E. coli Lemo21 (DE3); conditions: 200 mM aqueous ammonium acetate, pH 7, 25 °C, errors one standard deviation
Experimental: (§2) AlgXPp and AlgKPp stock solutions were buffer exchanged into 200 mM aqueous ammonium acetate (pH 7) using a 10 kDa cut-off Amicon 0.5 mL microconcentrators (EMD, Millipore, Billerica, MA). Stock solutions of oligosaccharides were prepared by dissolving a known amount of solid compound in Milli-Q water and stored at −20 °C until used. Nanoelectrospray (nanoESI) mass spectrometry measurements were performed on a Q Exactive Orbitrap (Orbitrap) mass spectrometer (Thermo Fisher Scientific, Bremen, Germany) and on a Q Exactive Ultra-High Mass Range Orbitrap mass spectrometer (Thermo Fisher Scientific, Bremen, Germany), both equipped with a nanoflow ESI source. […]
(§3) Association constants (Ka,kL and Ka,xL) for interactions of AlgKPp and AlgXPp with oligosaccharide ligands were obtained using the direct ESI-MS assay[68],[69]. […] Ka,kL and Ka,xL values were determined from the abundance ratio (R) of the ligand-bound (PL) to free protein (P) ions (P can be AlgKPp or AlgXPp), after correction for nonspecific ligand binding, and the initial concentrations of protein ([P]0) and ligand ([L]0), Eq. (1):1 R/R+1=KaP0+KaL0+1−(1−KaL0+KaP0)^2+4KaL0/2KaP0 where R is taken to be equal to the corresponding equilibrium concentration ratio ([PL]/[P]) in solution, Eq. (2):2 R=∑Ab(PL)/∑Ab(P)=[PL]/[P] and Ka is Ka,kL or Ka,xL.
Target sequence in this assay (Q88ND0 25-479): as above

[4] = biological target: T2, AlgKPp (Pseudomonas putida, UniProt Q88NC7); test: Direct ESI-MS alginate binding assay, AlgKPp; parameters: Induced cells containing either pET26b P. putida AlgK^33–484 or pET24b P. putida AlgX^∆Nterm; His6 (C); made in house; host or cells: E. coli BL21 (DE3) CodonPlus; conditions: 200 mM aqueous ammonium acetate, pH 7, 25 °C, errors one standard deviation, nb = no binding detected
T2 sequence (Q88NC7 33-484): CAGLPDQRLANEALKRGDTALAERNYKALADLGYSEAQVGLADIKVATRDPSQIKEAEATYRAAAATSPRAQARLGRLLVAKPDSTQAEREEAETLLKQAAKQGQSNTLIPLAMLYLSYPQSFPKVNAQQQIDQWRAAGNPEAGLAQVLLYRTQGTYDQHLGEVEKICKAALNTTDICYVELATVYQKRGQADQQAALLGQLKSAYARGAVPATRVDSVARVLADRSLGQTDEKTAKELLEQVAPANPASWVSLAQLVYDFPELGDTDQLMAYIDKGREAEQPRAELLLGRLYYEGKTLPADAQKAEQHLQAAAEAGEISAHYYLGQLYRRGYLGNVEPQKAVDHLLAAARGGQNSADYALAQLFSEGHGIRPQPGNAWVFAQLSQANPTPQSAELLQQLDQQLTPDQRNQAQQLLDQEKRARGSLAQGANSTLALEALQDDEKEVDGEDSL
Experimental: as §2, §3

[5] = biological target: T3, AlgKXPp complex (Pseudomonas putida, UniProt Q88NC7+Q88ND0); test: ESI-MS alginate binding assay, AlgKXPp complex (binding model fit); conditions: for Ka (M^−1) (AlgKXPp), apparent association constant: ESI-MS, 200 mM aqueous ammonium acetate, pH 7, 25 °C, errors one standard deviation; for fraction of AlgKXPp bound to ligand: ammonium acetate (200 mM, pH 7.0), mean, n = 3
T3 construct: Induced cells containing either pET26b P. putida AlgK^33–484 or pET24b P. putida AlgX^∆Nterm; His6 (C); made in house; host or cells: E. coli BL21 (DE3) CodonPlus (AlgK) and E. coli Lemo21 (DE3) (AlgX)
T3 sequence (Q88ND0 25-479): as the sequence (Q88ND0 25-479) above
T3 sequence (Q88NC7 33-484): as the sequence (Q88NC7 33-484) above
Experimental: (§4) AlgXPp and AlgKPp stock solutions were buffer exchanged into 200 mM aqueous ammonium acetate (pH 7) using a 10 kDa cut-off Amicon 0.5 mL microconcentrators (EMD, Millipore, Billerica, MA). Stock solutions of oligosaccharides were prepared by dissolving a known amount of solid compound in Milli-Q water and stored at −20 °C until used. Nanoelectrospray (nanoESI) mass spectrometry measurements were performed on a Q Exactive Orbitrap (Orbitrap) mass spectrometer (Thermo Fisher Scientific, Bremen, Germany) and on a Q Exactive Ultra-High Mass Range Orbitrap mass spectrometer (Thermo Fisher Scientific, Bremen, Germany), both equipped with a nanoflow ESI source. NanoESI was performed by applying a voltage of ~0.8 kV to a platinum wire inserted into the nanoESI tip, which was produced from a borosilicate glass capillary (1.0 mm o.d., 0.78 mm i.d.) pulled to ~2 μm o.d. using a P − 1000 micropipette puller (Sutter Instruments, Novato, CA). The inlet capillary of the MS was heated to 120 °C, the S-lens RF level was set at 100, automatic gain control target was set at 1 × 10^6 with a maximum injection time of 200 ms. All MS data were acquired and processed using Thermo Xcalibur 4.1 software.
(§5) 3b AlgXPpL⇌AlgXPp+L,Ka,xL=[AlgXPpL]/AlgXPp[L] 3c AlgKXPp⇌AlgKPp+AlgXPp,Ka,kx=[AlgKXPpL]/AlgKPp[AlgXPp] 3d AlgKXPpL⇌AlgKXPp+L,Ka,kxL=[AlgKXPL]/AlgKXPpLL
(§6) The corresponding mass balance equations are shown below:4a [L]0=[L]+[AlgKPpL]+[AlgXPpL]+[AlgKXPpL] 4b [AlgKPp]0=[AlgKPp]+[AlgKPpL]+[AlgKXPp]+[AlgKXPpL] 4c [AlgXPp]0=[AlgXPp]+[AlgXPpL]+[AlgKXPp]+[AlgKXPpL] where […], […], and [L]0 are initial concentrations of AlgKPp, AlgXPp, and oligosaccharide ligand L; Ka,kL, Ka,xL, and Ka,kx are association constant values determined as described above, and Ka,kxL is unknown parameter found by the fitting of the model to experimental data.

[6] = biological target: AlgKXPp (Pseudomonas putida, UniProt Q88NC7+Q88ND0); test: NanoESI-MS ligand titration of the AlgK-AlgX mixture, Ka,kxL fitted from the ligand-bound fraction of the complex with a coupled-equilibria model, 200 mM aqueous ammonium acetate pH 7, 25 °C by the table title (21 °C in the methods).; type: binding; conditions: n = 3; read-out: Ka (M^-1) (AlgKXPp)
AlgKXPp, sequence (Q88ND0 whole entry): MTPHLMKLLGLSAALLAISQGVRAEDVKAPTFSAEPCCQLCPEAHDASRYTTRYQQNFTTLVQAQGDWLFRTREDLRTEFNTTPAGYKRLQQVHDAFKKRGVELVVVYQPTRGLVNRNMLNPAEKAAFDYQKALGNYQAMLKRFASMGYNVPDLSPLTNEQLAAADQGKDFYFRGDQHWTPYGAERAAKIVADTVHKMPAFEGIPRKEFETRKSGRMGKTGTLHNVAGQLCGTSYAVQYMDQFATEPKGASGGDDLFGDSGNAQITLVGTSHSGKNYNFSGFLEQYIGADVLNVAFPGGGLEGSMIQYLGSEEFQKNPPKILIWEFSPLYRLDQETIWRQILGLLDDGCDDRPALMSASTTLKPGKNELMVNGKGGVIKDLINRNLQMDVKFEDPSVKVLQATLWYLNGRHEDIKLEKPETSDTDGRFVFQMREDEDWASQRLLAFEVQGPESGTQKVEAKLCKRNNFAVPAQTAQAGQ
AlgKXPp, sequence (Q88NC7 33-484): as the sequence (Q88NC7 33-484) above
Experimental: as §4
The Ka,kx for the interaction of AlgKPp and AlgXPp with the formation of AlgKXPp complex was obtained using the Slow Mixing Mode (SLOMO) ESI-MS assay. Briefly, ~2 µL of a solution of AlgXPp (5 µM) and AlgKPp (3–10 µM) was introduced into the nanoESI tip, followed by injection of 10 µL of solution of AlgXPp (5 µM) and AlgKPp (45 µM). The binding measurements were carried out at 21 °C; time-resolved mass spectra were averaged over 1 min intervals and the sum of the charge state-normalized abundances of the […] and AlgKXPp complex ions were calculated automatically using the SWARM software (https://github.com/pkitov/CUPRA-SWARM)[72]. The corrected (for response factors) abundances of AlgXPp and AlgKXPp species were used to calculate R/(R+1) values for AlgKPp (designated as L) and AlgXPp (designated as P) interaction and association constant Ka,kx was found using Eq. (1) (Ka,kx in this case designated as Ka in Eq. (1)).
as §5, §6

[7] = biological target: T2, AlgKPp; test: Direct nanoESI-MS binding assay of the single proteins with reference protein correction for nonspecific binding, 200 mM aqueous ammonium acetate pH 7, 25 °C by the table title (21 °C in the methods).; parameters: gene algK; conditions: read-out: Ka (M^-1) (AlgKPp); Ka (M^-1) (AlgXPp)
Experimental: as §4
(§7) Association constants (Ka,kL and Ka,xL) for interactions of AlgKPp and AlgXPp with oligosaccharide ligands were obtained using the direct ESI-MS assay[68],[69]. The binding measurements were carried out at 21 °C, and the equilibrium mixtures were prepared by mixing aliquots of the stock solutions of proteins and ligands in aqueous ammonium acetate (200 mM). ESI-MS measurements were performed after a 1 h incubation time period. All mass spectra were corrected, when needed, for the occurrence of nonspecific carbohydrate-protein binding during the ESI process using the reference protein method. Ka,kL and Ka,xL values were determined from the abundance ratio (R) of the ligand-bound (PL) to free protein (P) ions (P can be AlgKPp or AlgXPp), after correction for nonspecific ligand binding, and the initial concentrations of protein ([P]0) and ligand ([L]0), Eq. (1):1 R/R+1=KaP0+KaL0+1−(1−KaL0+KaP0)^2+4KaL0/2KaP0 where R is taken to be equal to the corresponding equilibrium concentration ratio ([PL]/[P]) in solution, Eq. (2):2 R=∑Ab(PL)/∑Ab(P)=[PL]/[P] and Ka is Ka,kL or Ka,xL.

[8] = biological target: T1, AlgXPp; test: as above; parameters: gene algX; conditions: read-out: Ka (M^-1) (AlgKPp); Ka (M^-1) (AlgXPp)
Experimental: as §4, §7
Target sequence in this assay (Q88ND0 whole entry): as the sequence (Q88ND0 whole entry) above

[9] = initial ligand concentration 50 µM
[10] = initial ligand concentration 100 µM
[11] = initial ligand concentration 155 µM
[12] = initial ligand concentration 211 µM
[13] = initial ligand concentration 265 µM
[14] = initial ligand concentration 322 µM

Compound | slope values used in graph [1] | slope values: rate of acetylesterase activity, absorbance value at 405 nm per second [2] | Ka (M^−1) (AlgXPp), apparent association constant [3] | Ka (M^−1) (AlgKPp), apparent association constant [4] | Ka (M^−1) (AlgKXPp), apparent association constant [5] | fraction of AlgKXPp bound to ligand [5, 9] | fraction of AlgKXPp bound to ligand [5, 10] | fraction of AlgKXPp bound to ligand [5, 11] | fraction of AlgKXPp bound to ligand [5, 12] | fraction of AlgKXPp bound to ligand [5, 13] | fraction of AlgKXPp bound to ligand [5, 14] | Kd [6] [mM] | Kd [7] [mM] | Kd [8] [mM]
AlgX: P. putida KT2440 AlgX 1–479, His-tagged terminal alginate acetyltransferase | 20818 and 20884 and 19338 and 14321 and 14083 and 15487 | 5.128e-5 and 6.734e-5 and 4.103e-5 |  |  |  |  |  |  |  |  |  |  |  | 
CCCO[C@@H]1O[C@H](C(=O)O)[C@@H](O[C@@H]2O[C@H](C(=O)O)[C@@H](O[C@@H]3O[C@H](C(=O)O)[C@@H](O[C@@H]4O[C@H](C(=O)O)[C@@H](O[C@@H]5O[C@H](C(=O)O)[C@@H](O[C@@H]6O[C@H](C(=O)O)[C@@H](O[C@@H]7O[C@H](C(=O)O)[C@@H](O)[C@H](O)[C@@H]7O)[C@H](O)[C@@H]6O)[C@H](O)[C@@H]5O)[C@H](O)[C@@H]4O)[C@H](O)[C@@H]3O)[C@H](O)[C@@H]2O)[C@H](O)[C@@H]1O [ManA7] |  |  | (2.6 ± 0.3) × 10^2 M^−1 | (4.2 ± 0.4) × 10^2 M^−1 | (10 ± 1.0) × 10^2 M^−1 | 0.028 | 0.08 | 0.15 | 0.20 | 0.21 | 0.24 |  |  | 
CCCO[C@@H]1O[C@H](C(=O)O)[C@@H](O[C@@H]2O[C@H](C(=O)O)[C@@H](O[C@@H]3O[C@H](C(=O)O)[C@@H](O[C@@H]4O[C@H](C(=O)O)[C@@H](O[C@@H]5O[C@H](C(=O)O)[C@@H](O[C@@H]6O[C@H](C(=O)O)[C@@H](O)[C@H](O)[C@@H]6O)[C@H](O)[C@@H]5O)[C@H](O)[C@@H]4O)[C@H](O)[C@@H]3O)[C@H](O)[C@@H]2O)[C@H](O)[C@@H]1O [ManA6] |  |  | (1.9 ± 0.7) × 10^2 M^−1 | (3.1 ± 0.5) × 10^2 M^−1 | (7.8 ± 0.8) × 10^2 M^−1 | 0.04 | 0.08 | 0.11 | 0.11 | 0.16 | 0.22 | 1.28 | 3.23 | 5.26
